Patent US20230091225A1, “Bifunctional chimeric heterocyclic compounds for targeted degradation of androgen receptors and use thereof” (HINOVA PHARMACEUTICALS INC., priority 2019, published 2023)
Where two headings read alike, the source gives them in different places.

Target: T1, androgen receptor (AR) (Homo sapiens, UniProt P10275)
T1 sequence (P10275 1-920): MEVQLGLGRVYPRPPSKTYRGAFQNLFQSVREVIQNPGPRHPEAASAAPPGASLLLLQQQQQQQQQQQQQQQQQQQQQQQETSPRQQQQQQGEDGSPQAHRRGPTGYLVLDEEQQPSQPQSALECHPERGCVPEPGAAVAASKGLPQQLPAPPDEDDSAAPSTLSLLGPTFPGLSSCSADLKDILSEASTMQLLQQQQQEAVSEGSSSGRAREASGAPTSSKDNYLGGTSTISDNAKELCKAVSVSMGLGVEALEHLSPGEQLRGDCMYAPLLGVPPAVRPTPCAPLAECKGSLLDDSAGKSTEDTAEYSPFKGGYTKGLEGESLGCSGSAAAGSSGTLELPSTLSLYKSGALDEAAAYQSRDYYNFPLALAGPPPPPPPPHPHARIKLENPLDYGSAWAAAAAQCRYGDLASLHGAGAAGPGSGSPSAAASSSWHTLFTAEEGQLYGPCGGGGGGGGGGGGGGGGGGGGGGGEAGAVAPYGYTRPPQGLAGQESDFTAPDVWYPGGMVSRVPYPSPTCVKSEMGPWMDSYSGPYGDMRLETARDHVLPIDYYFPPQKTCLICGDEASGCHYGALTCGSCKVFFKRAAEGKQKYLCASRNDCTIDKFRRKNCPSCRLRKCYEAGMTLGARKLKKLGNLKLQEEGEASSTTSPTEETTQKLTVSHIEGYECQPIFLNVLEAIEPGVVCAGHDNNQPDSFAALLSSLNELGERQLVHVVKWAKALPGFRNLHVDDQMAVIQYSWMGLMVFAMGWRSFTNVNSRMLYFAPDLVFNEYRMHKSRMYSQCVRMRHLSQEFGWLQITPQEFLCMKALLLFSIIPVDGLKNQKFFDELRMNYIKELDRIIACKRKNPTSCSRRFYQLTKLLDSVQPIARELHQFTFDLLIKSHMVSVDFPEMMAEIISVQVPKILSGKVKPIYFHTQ
Assay: Degradation of androgen receptor (AR) protein in VCaP cells by ELISA
Assay type: cell-based
Conditions: for Dmax: VCaP

[1] = AR degradation, VCaP cells, 16 h, ELISA, Table 3-1, read-out: DC50
[2] = AR degradation, VCaP cells, 16 h, ELISA, Table 3-1, read-out: Dmax (%)

Compound `CC1(C)[C@H](Oc2ccc(C#N)c(Cl)c2)C(C)(C)[C@H]1N1Cc2nc(C#C[C@H]3C[C@H](N4CCN(c5cc6c(cc5F)C(=O)N(C5CCC(=O)NC5=O)C6=O)CC4)C3)ccc2C1=O` (stereo partly shown) [Compound 357] has a DC50 [1] of under 0.01 µM and a Dmax [2] of over 80%.

In the case of `N#Cc1ccc(O[C@H]2CC[C@H](NC(=O)c3ccc(N4CCC(N5CC6(CCN(c7ccc8c(c7)C(=O)N(C7CCC(=O)NC7=O)C8=O)CC6)C5)CC4)nn3)CC2)cc1Cl` (stereo partly shown) [Compound 78], the DC50 [1] was under 0.01 µM and the Dmax [2] was over 80%.

For `Cc1cc(O[C@H]2C(C)(C)[C@H](N3Cc4nc(C#C[C@H]5CC[C@H](N6CCN(c7cc8c(cc7F)C(=O)N(C7CCC(=O)NC7=O)C8=O)CC6)CC5)ccc4C3=O)C2(C)C)ccc1C#N` (stereo partly shown) [Compound 401], the DC50 (AR degradation, VCaP cells, 16 h, ELISA, Table 3-2, read-out: DC50) was 0.01 to 0.1 µM and the Dmax was over 80%.

Work on `CC1(C)[C@H](Oc2ccc(C#N)c(Cl)c2)C(C)(C)[C@H]1N1Cc2nc(C#CC3CC(N4CC5CN(c6ccc7c(c6)C(=O)N(C6CCC(=O)NC6=O)C7=O)CC5C4)C3)ccc2C1=O` (stereo partly shown) [Compound 359, 2-Chloro-4-((1r,3r)-3-(2-((3-(5-(2-(2,6-dioxopiperidin-3-yl)-1,3-dioxoisoindolin-5-yl)hexahydropyrrolo[3,4-c]pyrrol-2(1H)-yl)cyclobutyl)ethynyl)-5-oxo-5,7-dihydro-6H-pyrrolo[3,4-b]pyridin-6-yl)-2,2,4,4-tetramethylcyclobutoxy)benzonitrile] yielded a DC50 [1] of 0.01 to 0.1 µM.

Compound `CC1(C)[C@H](Oc2ccc(C#N)c(Cl)c2)C(C)(C)[C@H]1N1Cc2nc(C#CC3CN(C4CN(c5cc6c(cc5F)C(=O)N(C5CCC(=O)NC5=O)C6=O)C4)C3)ccc2C1=O` (stereo partly shown) [Compound 322] has a DC50 [1] of under 0.01 µM and a Dmax [2] of 60 to 80%.

Compound `C[C@@H]1CN(c2ccc(C(=O)N[C@H]3CC[C@H](Oc4ccc(C#N)c(Cl)c4)CC3)nn2)CCN1C[C@H]1[C@@H]2CN(c3cc4c(cc3F)C(=O)N(C3CCC(=O)NC3=O)C4=O)C[C@@H]21` (stereo partly shown) [Compound 265] has a DC50 [1] of 0.01 to 0.1 µM and a Dmax [2] of 60 to 80%.

For `N#Cc1ccc(O[C@H]2CC[C@H](NC(=O)c3ccc(N4CCC(CN5CCC6(CC5)CN(c5ccc7c(c5)C(=O)N(C5CCC(=O)NC5=O)C7=O)C6)CC4)nn3)CC2)cc1Br` (stereo partly shown) [Compound 274, N-((1r,4r)-4-(3-bromo-4-cyanophenoxy)cyclohexyl)-6-(4-((2-(2-(2-,2,6-dioxopiperidin-3-yl)-1,3-dioxoisoindolin-5-yl)-2,7-diazaspiro[3.5]nonan-7-yl)methyl)piperidin-1-yl)pyridazine-3-carboxamide], the DC50 was under 0.01 µM and the Dmax was over 80%.

Compound `CC1(C)[C@H](Oc2ccc(C#N)c(Cl)c2)C(C)(C)[C@H]1N1Cc2nc(C#C[C@H]3CC[C@H](N4CCN(c5ccc6c(c5)C(=O)N(C5CCC(=O)NC5=O)C6=O)CC4)CC3)cnc2C1=O` (stereo partly shown) [Compound 381] has a DC50 [1] of 0.01 to 0.1 µM and a Dmax [2] of over 80%.

Compound `N#Cc1ccc(O[C@H]2CC[C@H](NC(=O)c3cnc(N4CCN(C5CC6(CCN(c7cc8c(cc7F)C(=O)N(C7CCC(=O)NC7=O)C8=O)CC6)C5)CC4)cn3)CC2)cc1Cl` (stereo partly shown) [Compound 277, N-((1r,4r)-4-(3-chloro-4-cyanophenoxy)cyclohexyl)-5-(4-(7-(2-(2,6-dioxopiperidin-3-yl)-6-fluoro-1,3-dioxoisoindolin-5-yl)-7-azaspiro[3.5]nonan-2-yl)piperazin-1-yl)pyrazine-2-carboxamide] has a DC50 [1] of 0.01 to 0.1 µM and a Dmax [2] of over 80%.

`N#Cc1ccc(O[C@H]2CC[C@H](NC(=O)c3nc(N4CCC(CN5CCC6(CC5)CN(c5ccc7c(c5)C(=O)N(C5CCC(=O)NC5=O)C7=O)C6)CC4)no3)CC2)cc1Cl` (stereo partly shown) [Compound 413] gave a DC50 of under 0.01 µM and a Dmax of over 80%.

`N#Cc1ccc(O[C@H]2CC[C@H](NC(=O)c3ccc(N4CCC(CN5CC6(C5)CN(c5cc7c(cc5F)C(=O)N(C5CCC(=O)NC5=O)C7=O)C6)CC4)nn3)CC2)cc1Cl` (stereo partly shown) [Compound 122, N-((1r,4r)-4-(3-chloro-4-cyanophenoxy)cyclohexyl)-6-(4-((6-(2-(2,6-dioxopiperidin-3-yl)-6-fluoro-1,3-dioxoisoindolin-5-yl)-2,6-diazaspiro[3.3]heptan-2-yl)methyl)piperidin-1-yl)pyridazine-3-amide] was tested, and the DC50 was under 0.01 µM and the Dmax was over 80%.

Compound `N#Cc1ccc(O[C@H]2CC[C@H](NC(=O)c3cnc(N4CCC(CN5CC6(CCN(c7cc8c(cc7F)C(=O)N(C7CCC(=O)NC7=O)C8=O)C6)C5)CC4)cn3)CC2)cc1Cl` (stereo partly shown) [Compound 188, N-((1r,4r)-4-(3-chloro-4-cyanophenoxy)cyclohexyl)-5-(4-((6-(2-(2,6-dioxopiperidin-3-yl)-6-fluoro-1,3-dioxoisoindolin-5-yl)-2,6-diazaspiro[3.4]octan-2-yl)methyl)piperidin-1-yl)pyrazine-2-carboxamide] has a DC50 [1] of under 0.01 µM and a Dmax [2] of over 80%.

For `CC1(C)[C@H](Oc2ccc(C#N)c(Cl)c2)C(C)(C)[C@H]1N1Cc2nc(C#CC3CCC(N4CC5(CCN(c6cc7c(cc6F)C(=O)N(C6CCC(=O)NC6=O)C7=O)CC5)C4)CC3)ccc2C1=O` (stereo partly shown) [Compound 378, 2-Chloro-4-((1 r,3r)-3-(2-((4-(7-(2-(2,6-dioxopiperidin-3-yl)-6-fluoro-1,3-dioxoisoindolin-5-yl)-2,7-diazaspiro[3.5]nonan-2-yl)cyclohexyl)ethynyl)-5-oxo-5,7-dihydro-pyrrolo[3,4-b]pyridin-6-yl)-2,2,4,4-tetramethylcyclobutoxy) benzonitrile], the “Dmax (%)” value (AR degradation, VCaP cells, 16 h, ELISA, Table 3-1) was “+ (<40%)” and the DC50 [1] was over 0.3 µM.

In the case of `CC1(C)[C@H](Oc2ccc(C#N)c(Cl)c2)C(C)(C)[C@H]1N1Cc2nc(C#CC3CCC(N4CC5(CN(c6ccc7c(c6)C(=O)N([C@@H]6CCC(=O)NC6=O)C7=O)C5)C4)CC3)ccc2C1=O` (stereo partly shown) [Compound 351, 2-Chloro-4-((1r,3r)-3-(2-((4-(6-(2-(2,6-dioxopiperidin-3-yl)-1,3-dioxoisoindolin-5-yl)-2,6-diazaspiro[3.3]heptane-2-yl)cyclohexyl)ethynyl)-5-oxo-5,7-dihydro-6H-pyrrolo[3,4-b]pyridin-6-yl)-2,2,4,4-tetramethylcyclobutoxy) benzonitrile], the “Dmax (%)” value was “++++ (key: A: >80%; B: 79%-50%; C: 49%-25%; D: <25%)” and the DC50 (read-out: DC50) was under 0.01 µM.

Compound `N#Cc1ccc(O[C@H]2CC[C@H](NC(=O)c3ccc(N4CCC5(CC4)CN(CC4CCN(c6ccc7c(c6)C(=O)N(C6CCC(=O)NC6=O)C7=O)CC4)C5)nn3)CC2)cc1Cl` (stereo partly shown) [Compound 190, N-((1r,4r)-4-(3-chloro-4-cyanophenoxy)cyclohexyl)-6-(2-((1-(2-(2,6-dioxopiperidin-3-yl)-1,3-dioxoisoindolin-5-yl)piperidine-4-yl)methyl)-2,7-diazaspiro[3.5]nonan-7-yl)pyridazine-3-formamide] has a DC50 [1] of under 0.01 µM and a Dmax [2] of over 80%.

Compound `N#Cc1ccc(O[C@H]2CC[C@H](NC(=O)c3cnc(N4CC5(CN(CC6CCN(c7cc8c(cc7F)C(=O)N(C7CCC(=O)NC7=O)C8=O)CC6)C5)C4)cn3)CC2)cc1Cl` (stereo partly shown) [Compound 125] has a DC50 [1] of under 0.01 µM and a Dmax [2] of over 80%.

`N#Cc1ccc(O[C@H]2CC[C@H](NC(=O)c3ccc(N4CCN(C[C@@H]5[C@H]6CN(c7cc8c(cc7F)C(=O)N(C7CCC(=O)NC7=O)C8=O)C[C@@H]56)CC4)cn3)CC2)cc1Cl` (stereo partly shown) [Compound 286] gave a DC50 [1] of 0.01 to 0.1 µM and a Dmax [2] of 60 to 80%.

In the case of `N#Cc1ccc(O[C@H]2CC[C@H](NC(=O)c3ncc(N4CCC(CN5CCC6(CC5)CN(c5cc7c(cc5F)C(=O)N(C5CCC(=O)NC5=O)C7=O)C6)CC4)cn3)CC2)cc1Cl` (stereo partly shown) [Compound 148], the DC50 was over 0.3 µM and the Dmax was 40 to 60%.

With `C[C@H]1CN(C[C@@H]2[C@H]3CN(c4cc5c(cc4F)C(=O)N(C4CCC(=O)NC4=O)C5=O)C[C@@H]23)CCN1c1ccc(C(=O)N[C@H]2CC[C@H](Oc3ccc(C#N)c(Cl)c3)CC2)nn1` (stereo partly shown) [Compound 170] the DC50 [1] was under 0.01 µM and the Dmax [2] was over 80%.
